Values quoted from earlier work, collected in EP0769503A2, “A heparin complex and medical device having such substance” (priority 1995, dated 1997).

System: rat
Conditions: oral administration to rat

Compound: CCCCCCCCCCCCCCCCCC[N+](C)(C)CCCCCCCCCCCCCCCCCC.[Cl-] [Distearyldimethylammonium chloride]
- LD50: 11300 mg/kg

Compound: CCCCCCCCCCCC[N+](C)(C)Cc1ccccc1.[Cl-] [Laurylbenzyldimethylammonium chloride]
- LD50: >500 mg/kg

Compound: CCCCCCCCCCCCCCCCCC[N+](C)(C)Cc1ccccc1.[Cl-] [Stearylbenzyldimethylammonium chloride]
- LD50: 1250 mg/kg

Compound: CCCCCCCCCCCCCCCC[N+](C)(C)C.[Cl-] [Trimethylhexadecylammonium chloride]
- LD50: 250 to 300 mg/kg

Compound: CCCCCCCCCCCCCCCCCC[N+](C)(C)C.[Cl-] [Trimethyloctadecylammonium chloride]
- LD50: 1000 mg/kg

Compound: Benzalkonium dimethylammonium (C8-C18) chloride
- LD50: 445 mg/kg
